Reference: patent US4456752A, “Process for the preparation of 9-hydrazono-6,7,8,9-tetrahydro-4H-pyro[1,2-a]pyrimidine-4-one compounds, the salts and hydrates thereof” (Chinoin Gyogyszer es Vegyeszeti Termekek Gyara R.T., priority 1979, dated 1984)

Legend:
[1] = tested on: allergic reactions induced by the antigen-antibody interaction; assay: PCA test (Ovary), antiallergic activity on rats; type: in vivo; conditions: for ED50: Rattus norvegicus, iv, rats
Protocol: The test is carried out by the PCA test-method (Ovary: J. Immun. 81, 355, 1958) and the Church-test (British J. Pharm. 46, 56-66, 1972; Immunology 29, 527-534, 1975) and as a reference substance disodium chromoglycate is used. The test was carried out on rats.

[2] = tested on: allergic symptoms; conditions: oral / inhaler; background statement; cited from earlier work

CCOc1ccc(NN=C2CCC(C)n3c2ncc(C(=O)O)c3=O)cc1 (racemic) [(±)-9-(4-ethoxyphenyl-hydrazono)-6-methyl-4-oxo-6,7,8,9-tetrahydro-4H--pyrido[1,2-a]pyrimidine-3-carboxylic acid]
ED50 [1]: 0.87 µmol/kg

Cc1cccc(NN=C2CCC(C)n3c2ncc(C(=O)O)c3=O)c1 (centres unmarked) [6-methyl-9-(3-methylphenyl-hydrazono)-4-oxo-6,7,8,9-tetrahydro-4H--pyrido[1,2-a]-pyrimidine-3-carboxylic acid]
ED50 [1]: 0.42 µmol/kg

CC1CCC(=NNc2cccc([N+](=O)[O-])c2)c2ncc(C(=O)O)c(=O)n21 (centres unmarked) [6-methyl-9-(3-nitrophenyl-hydrazono-4-oxo-6,7,8,9-tetrahydro-4H--pyrido[1,2-a]-pyrimidine-3-carboxylic acid]
ED50 [1]: 0.52 µmol/kg

CC1CCC(=NNc2cccc(Cl)c2)c2ncc(C(=O)O)c(=O)n21 (centres unmarked) [9-(3-chlorophenylhydrazono)-6-methyl-4-oxo-6,7,8,9-tetrahydro-4H--pyrido[1,2-a]-pyrimidine-3-carboxylic acid]
ED50 [1]: 0.61 µmol/kg

CC1CCC(=NNc2ccc(Br)cc2)c2ncc(C(=O)O)c(=O)n21 (centres unmarked) [9-(4-bromophenylhydrazono)-6-methyl-4-oxo-6,7,8,9-tetrahydro-4H--pyrido[1,2-a]-pyrimidine-3-carboxylic acid]
ED50 [1]: 0.82 µmol/kg

CC1CCC(=NNc2ccc(C(=O)O)cc2)c2ncc(C(=O)O)c(=O)n21 (centres unmarked) [9-(4-carboxyphenyl-hydrazono)-6-methyl-4-oxo-6,7,8,9-tetrahydro-4H--pyrido[1,2-a]pyrimidine-3-carboxylic acid]
ED50 [1]: 7.6 µmol/kg

O=C(O)c1cc(=O)c2c(OCC(O)COc3cccc4oc(C(=O)O)cc(=O)c34)cccc2o1 [Disodium chromoglycate, 1,3-bis-(2-carboxychromon-6-yl-ox)-2-hydroxypropane, reference compound]
effectiveness by route (antiasthmatic agent, in words) [2]: not effective orally and it produces the desired effect only by using an inhaler | oral activity (PCA test data, in words) ([1]; oral versus i.v.): effective only when administered intravenously
